Measured values from US12263248B2, “Compounds and compositions for intracellular delivery of therapeutic agents” (ModernaTX, Inc., priority 2018, dated 2025).

Columns and labels:
[1] = Encapsulation efficiency of RNA (QUANT-IT RIBOGREEN RNA assay); type: physicochemical; settings: for % Encapsulation: lipid nanoparticle, ±SD within one assay run (Table 37)
Method in brief: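 RiboGreen fluorescence (ex ~480, em ~520 nm) compared between intact samples and Triton X-100-lysed samples after 15 min at 37 °C in TE buffer, pH 7.5. Percent free RNA is the blank-corrected intact/disrupted ratio.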

[2] = Apparent (surface) pKa of the LNP formulation (TNS assay); type: physicochemical
Method in brief: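 Fluorescence of TNS probe added to LNP samples (mRNA 0.04 mg/mL) was read across 21 buffers of pH about 3-12, triplicate per pH. The inflection point of the sigmoidal fluorescence-vs-pH curve, […], gives apparent pKa; method validated in 1× PBS and Tris/sucrose buffer.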

luciferase (Luc) mRNA [3] = assay: Luc expression, whole body bioluminescence after intravenous administration to mice; type: in vivo; settings: for Fold increase in total body Luc Flux relative to MC3 at 6 h: Table 3A; for Total Flux 3 hours / Total Flux 6 hours / Total Flux 24 hours: Luc mRNA
Method in brief: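 Bioluminescence, read as region-of-interest total flux at 3, 6 and 24 h, followed a single 0.5 mg/kg intravenous dose of Luc mRNA-loaded nanoparticles in mice (n=6). Luciferin substrate (200 μL, 15 mg/mL in PBS) was injected intraperitoneally into CD-1 mice 15 minutes ahead of each imaging point.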

luciferase (Luc) mRNA [4] = assay: Luc expression (total flux) after intramuscular administration; type: in vivo, mice; settings: for AUC (p/s * h) / Lipid/MC3 AUC: Table 3H, Luc; for Total flux, 0.001 mpk Dose / Total flux, 0.01 mpk Dose: Luc mRNA and H10 mRNA
Method in brief: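 Total-flux luciferase signal in mice after one intramuscular injection. Nanoparticle formulations contained modified Luc mRNA, either alone or co-dosed with H10 mRNA (e.g., 0.0005 or 0.005 mpk of each), giving 0.001 or 0.01 mpk.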

[5] = Table 1E, compositions for subcutaneous administration
[6] = lipid nanoparticle, ±SD within one assay run (Table 37)
[7] = 6 hours after intramuscular administration
[8] = 6 hours after intramuscular administration, 0.01 mpk
[9] = Table 1B, formulated with hEPO mRNA

Structure (SMILES)	EE (%) ([1]; Table 1A)	% EE [1, 5] [%]	pKa ([2]; Table 1A)	Fold increase in total body Luc Flux relative to MC3 at 6 h (luciferase (Luc) mRNA [3]; i.v. administration)	Total Flux 3 hours (luciferase (Luc) mRNA [3]; mice, i.v., 0.5 mg/kg)	Total Flux 6 hours (luciferase (Luc) mRNA [3]; mice, i.v., 0.5 mg/kg)	Total Flux 24 hours (luciferase (Luc) mRNA [3]; mice, i.v., 0.5 mg/kg)	AUC (p/s * h) (luciferase (Luc) mRNA [4]; intramuscular)	Lipid/MC3 AUC (luciferase (Luc) mRNA [4]; intramuscular)	% Encapsulation [1] [%]	pKa [2, 6]	Total flux, 0.001 mpk Dose (luciferase (Luc) mRNA [4]; [7]) [p/s]	Total flux, 0.01 mpk Dose (luciferase (Luc) mRNA [4]; [8]) [p/s]	other results
CCCCCCCCC(CCCCCCCC)OC(=O)CCCCCCCN(CCO)CCCCCC(=O)OC(CCCCCCCC)C1CC1 (centres unmarked) [Compound 128, Heptadecan-9-yl 8-((6-((1-cyclopropylnonyl)oxy)-6-oxohexyl)(2-hydroxyethyl)amino)octanoate]	92.45	94	6.56	4.05	1.04E+11	8.99E+10	1.00E+09	8.59E+08	1.46					Novel lipid/MC3 expression ratio, 6 hr. time point, i.v. (luciferase (Luc) mRNA [3]; luciferase, intravenous, relative to MC3 formulation): 4.05; total flux at 3 hours (luciferase (Luc) mRNA [3]; mice, i.v., 0.5 mg/kg, comparison in words): highest
CCCCCCCCCOC(=O)CCCCCCCN(CCO)CCCCCCCC(=O)OCCCCCCCCC [Compound 138, Dinonyl 8,8′-((2-hydroxyethyl)azanediyl)dioctanoate]	91.8		7.39		2.97E+07	2.30E+07	1.63E+06			91.8 ± 0.9	7.39 ± 0.07	2.72E+05	1.19E+06	surface pKa ([2]; LNP, Example 26): > 7
CCCCCCCC/C=C\COC(=O)CCCCCN(CCO)CCCCCC(=O)OC/C=C\CCCCCCCC [Compound 140, Di((Z)-undec-2-en-1-yl) 6,6′-((2-hydroxyethyl)azanediyl)dihexanoate]	89.2		7.71		3.74E+06	1.70E+06	5.67E+05					2.03E+05	6.09E+05	flux at all timepoints measured (luciferase (Luc) mRNA [3]; mice, i.v., 0.5 mg/kg, 3, 6 and 24 hour, in words): significantly lower flux
CCCCCCCCCOC(=O)CCCCCCCN(CCO)CCCCCCC(=O)OCC(CCCCCCCC)CCCCCCCC [Compound 143, Nonyl 8-((2-hydroxyethyl)(7-((2-octyldecyl)oxy)-7-oxoheptyl)amino)octanoate]	97.37		6.47		1.76E+10	2.03E+10	2.47E+08	2.29E+09	3.89					Novel lipid/MC3 expression ratio, 6 hr. time point, i.m. Luc (luciferase (Luc) mRNA [4]; intramuscular, relative to MC3 formulation): 4.05
CCCCCCCCCOC(=O)CCCCCCCN(CCO)CCCCCCCC(=O)N(CCCCCCCC)CCCCCCCC [Compound 144, Nonyl 8-((8-(dioctylamino)-8-oxooctyl)(2-hydroxyethyl)amino)octanoate]	90.3		7.09		9.50E+09	1.82E+09	3.36E+08					2.72E+06	2.18E+07	
CCCCC/C=C\C/C=C\CCCCCCCCC(CCCCCCCC/C=C\C/C=C\CCCCC)OC(=O)CCCN(C)C [MC3, DLin-MC3-DMA, reference compound]	97.3	98		1.00	1.58E+10	2.12E+10	7.19E+08	5.88E+08	1	97.3 ± 1.9	6.30 ± 0.03	2.76E+06	3.68E+07	EE (%) [1, 9]: 99.01%; % EE ([1]; Table 1C, compositions for subcutaneous administration): 98.2%; % EE ([1]; Table 1D, for subcutaneous administration, # formulated with hEPO mRNA): 98.7%; EE ([1]; lipid:DSPC:Chol:PEG-DMG (50:10:38.5:1.5), hEPO mRNA): 97.22%; EE ([1]; nanoparticle composition with hEPO mRNA (Table 30)): 91.66%; Apparent pKa [2, 9]: 6.35; Lipid/MC3 Luc expression (luciferase (Luc) mRNA [3]; 0.5 mpk dose to mouse, 6 hours after administration): 1; 6 h Lipid/MC3 Avg. Luc Expression (luciferase (Luc) mRNA [3]; Table 3C, i.v. administration): 1; Fold increase AUC Lipid/MC3 (luciferase (Luc) mRNA [3]; Table 3C, i.v. administration): 1; AUC (h * p/s) (luciferase (Luc) mRNA [3]; Table 3C, i.v. administration, Luc): 8.24E+10 h * p/s; Lipid/MC3 AUC (luciferase (Luc) mRNA [3]; Table 3D, intravenous): 1; AUC (p/s * h) (luciferase (Luc) mRNA [3]; Table 3D, intravenous, Luc): 1.909E+011 p/s * h; Average total flux (6 h, ffluc) (luciferase (Luc) mRNA [3]; mice, intravenous, 6 h): 6.59 × 10^9; Fold increase in average total flux relative to MC3 (luciferase (Luc) mRNA [3]; mice, intravenous, 6 h): 1; Total flux (p/s) 0.01 mpk Dose (luciferase (Luc) mRNA [4]; Table 5B, 6 hours after intramuscular administration, 0.01 mpk): 3.23E+07 p/s
